Laboratory results published in patent publication US7247306B2, “Bacteria strain and bacteriocin produced therefrom” (Universite Laval, priority 2004, dated 2007).
Marks after values point to notes of the source that are not given here.

Columns and labels:
Assay type in all cases: cell-based
[1] = system: Propionibacterium freudenreichii; test: Agar diffusion method, spectrum of activity; set-up: key: +, inhibition;; −, no inhibition; conditions: strain R 0501
Description: (§1) Bacteria stocks were maintained as 20% glycerol stock, at −80° C., for further use. Carnobacterium sp. and Lactococcus sp. strains were cultivated in MRS broth comprising 0.1% (vol/vol) Tween 80® in aerobic condition at 30° C., as currently known in the art. Listeria monocytogenes and Escherichia coli were grown in tryptic soy broth (TSB), supplemented with 0.6% (wt/vol) yeast extract in aerobic conditions, at 37° C., while Listeria innocua and L. ivanovii were re-cultivated in TSB with yeast extract and incubated aerobically at 30° C. Streptococcus thermophilus, Propionibacterium sp. and pediococci were activated in MRS broth at 37° C. under aerobic condition. All lactobacilli and bifidobacteria were grown in MRS broth supplemented with 0.05% (wt/vol) L-cysteine-hydrochloride and incubated anaerobically in Oxoid jars using an atmosphere generation system, at 37° C. In prior experiments, bacteria strains were sub-cultured at least three times (1%, vol/vol) in respective media at 24 h intervals.
(§2) The antibacterial activity of bacteriocin produced by C. divergens M35 was tested toward a variety of bacteria species, listed in Table 1, and belonging to genus Listeria, Lactobacillus, Streptococcus, Lactococcus, Propionibacterium and Escherichia, and was evaluated following the agar diffusion method, as is well known to those skilled in the art.

Lactobacillus plantarum = test: Agar diffusion method, spectrum of activity; set-up: key: +, inhibition;; −, no inhibition; conditions: strain R 1012
Description: as §1, §2

Lactobacillus rhamnosus = test: Agar diffusion method, spectrum of activity; set-up: key: +, inhibition;; −, no inhibition; conditions: strain R 0011
Description: as §1, §2

[2] = system: Lactobacillus delbrueckii subsp. lactis; test: Agar diffusion method, spectrum of activity; set-up: key: +, inhibition;; −, no inhibition; conditions: strain R 0187
Description: as §1, §2

Pediococcus acidilactici = test: Agar diffusion method, spectrum of activity; set-up: key: +, inhibition;; −, no inhibition
Description: as §1, §2

[3] = system: Lactococcus lactis (subsp. lactis biovar. diacetylactis); test: Agar diffusion method, spectrum of activity; set-up: key: +, inhibition;; −, no inhibition
Description: as §1, §2

Lactobacillus salivarius = test: Agar diffusion method, spectrum of activity; set-up: key: +, inhibition;; −, no inhibition; conditions: strain R 0078
Description: as §1, §2

[4] = system: Lactococcus lactis (subsp. lactis); test: Agar diffusion method, spectrum of activity; set-up: key: +, inhibition;; −, no inhibition; conditions: strain R0058
Description: as §1, §2

[5] = system: Lactobacillus acidophilus; test: Agar diffusion method, spectrum of activity; set-up: key: +, inhibition;; −, no inhibition; conditions: strain R 0052
Description: as §1, §2

Bifidobacterium breve = test: Agar diffusion method, spectrum of activity; set-up: key: +, inhibition;; −, no inhibition; conditions: strain ATCC 15700
Description: as §1, §2

Propionibacterium sp. = test: Agar diffusion method, spectrum of activity; set-up: key: +, inhibition;; −, no inhibition; conditions: strain P5
Description: as §1, §2

[6] = system: Streptococcus thermophilus; test: Agar diffusion method, spectrum of activity; set-up: key: +, inhibition;; −, no inhibition; conditions: strain R 0083
Description: as §1, §2

Pediococcus pentosaceus = test: Agar diffusion method, spectrum of activity; set-up: key: +, inhibition;; −, no inhibition; conditions: strain R 1044
Description: as §1, §2

Lactobacillus casei = test: Agar diffusion method, spectrum of activity; set-up: key: +, inhibition;; −, no inhibition; conditions: strain R R0256
Description: as §1, §2

L. ivanovii = test: Agar diffusion method, spectrum of activity; set-up: key: +, inhibition;; −, no inhibition
Description: as §1, §2

L. innocua HPB13 [7] = test: Critical-dilution micromethod (microtiter plate assay) on purification stages; conditions: specific activity at stage ni divided by that of the culture supernatant
Description: The concentrated bacteriocin was further purified by Reverse-Phase Column Liquid Chromatography (RP-HPLC) using a Beckman Gold System (Beckman Coulter Canada Inc., Mississauga, ON, Canada). Briefly, 100 μl of the concentrated bacteriocin were injected into an analytic C18 reverse-phase column (Luna 5μ, 4.6×250 mm, Phenomenex, Calif., USA). Elution was performed at a flow rate of 1 ml/min using a linear gradient from 90% solvent A (0.1% (wt/vol) trifluoroacetic acid (TFA) prepared in 5% (vol/vol) acetonitrile in water) and 10% solvent B (0.1% TFA in 100% acetonitrile) to 42 and 58% of solvents A and B, respectively, for 46 min. Peptide fractions were detected by spectrophotometry by measuring the absorbance at 220 nm and were collected manually. The fractions were concentrated using a speed-vac concentrator, dissolved in acetate buffer ([…], pH 4.0) and assayed for both bacteriocin activity by the critical-dilution micromethod, and protein content.
Protein concentration was determined as known in the art. […] Optical densities (650 nm) were then measured using a Thermo-max molecular device spectrophotometer (OPTI-Resources Inc., Quebec, PQ, Canada). […]
The biological activity of divergicin M35 was determined during the purification procedure by both agar diffusion and critical-dilution methods using L. innocua HPB 13 as indicator strain.

L. innocua HPB13 [8] = test: Bacteriocin activity during growth of C. divergens M35 in MRS broth, critical-dilution micromethod; conditions: 30° C.
Description: Protein concentration was determined as known in the art. Two-fold serial dilutions of 125 μl of tested sample were transferred into wells with a flat bottom microtest™ polystyrene microplate (96-well microtest, Becton Dickinson Labware, Franklin Lakes, N.J., USA), previously filled with 125 μl tryptic soy broth supplemented with 0.6% yeast extract (wt/vol). Each well was inoculated with 50 μl of 1000-fold diluted overnight culture of L. innocua HPB13 (final concentration of approximately 10^6 cfu/ml) and incubated at 30° C. for 18 h. Optical densities (650 nm) were then measured using a Thermo-max molecular device spectrophotometer (OPTI-Resources Inc., Quebec, PQ, Canada). The bacteriocin activity, expressed in arbitrary units per milliliter (AU/ml), was defined as the highest bacteriocin dilution showing complete inhibition of the indicator strain (optical density equals to that in un-inoculated media).
A C. divergens M35 culture were diluted (1% vol/vol) in peptone water (0.1%), plated on MRS agar supplemented with 0.1% vol/vol Tween 80® and incubated aerobically at 30° C. for 24 h. Bacterial viable counts, bacteriocin activity and pH were determined at 2 h intervals. Bacteriocin activity was determined according to the critical-dilution micromethod described hereinabove, using 5 ml of culture supernatant, separated by centrifugation and heated at 100° C.

Listeria monocytogenes = test: Agar diffusion method, spectrum of activity; set-up: key to Sensitivity to divergicin M35: +, inhibition;; −, no inhibition
Description: as §1, §2

L. innocua = test: Agar diffusion method, spectrum of activity; set-up: key to Sensitivity to divergicin M35: +, inhibition;; −, no inhibition; conditions: strain HPB13
Description: as §1, §2

Carnobacterium divergens = test: Agar diffusion method, spectrum of activity; set-up: key to Sensitivity to divergicin M35: +, inhibition;; −, no inhibition; conditions: strain ATCC 385
Description: as §1, §2

L. welshimeri = test: Agar diffusion method, spectrum of activity; set-up: key to Sensitivity to divergicin M35: +, inhibition;; −, no inhibition; conditions: strain LSD 12
Description: as §1, §2

Escherichia coli = test: Agar diffusion method, spectrum of activity; set-up: key to Sensitivity to divergicin M35: +, inhibition;; −, no inhibition
Description: as §1, §2

L. murayi = test: Agar diffusion method, spectrum of activity; set-up: key to Sensitivity to divergicin M35: +, inhibition;; −, no inhibition; conditions: strain LSD 14
Description: as §1, §2

L. grayi = test: Agar diffusion method, spectrum of activity; set-up: key to Sensitivity to divergicin M35: +, inhibition;; −, no inhibition; conditions: strain LSD 13
Description: as §1, §2

L. seeligeri = test: Agar diffusion method, spectrum of activity; set-up: key to Sensitivity to divergicin M35: +, inhibition;; −, no inhibition; conditions: strain LSD 11
Description: as §1, §2

Carnobacterium piscicola = test: Agar diffusion method, spectrum of activity; set-up: key to Sensitivity to divergicin M35: +, inhibition;; −, no inhibition; conditions: strain ATCC 386
Description: as §1, §2

divergicin M35: class IIa bacteriocin of 43 amino acids, 4518 Da, produced by Carnobacterium divergens strain M35 (SEQ ID NO: 1) (TKYYGNGVYCNSKKCWVDWGTAQGCIDVVIGQLGGGIPGKGKC; listed as Carnobacterium divergens)
Sensitivity to divergicin M35 [1]: −
Sensitivity to divergicin M35 (Lactobacillus plantarum): −
Sensitivity to divergicin M35 (Lactobacillus rhamnosus): −
Sensitivity to divergicin M35 [2]: −
Sensitivity to divergicin M35 (Pediococcus acidilactici; strain R 1001): −
Sensitivity to divergicin M35 (Pediococcus acidilactici; strain UL 5): −
Sensitivity to divergicin M35 ([3]; strain R 0100): −
Sensitivity to divergicin M35 ([3]; strain UL719): −
Sensitivity to divergicin M35 (Lactobacillus salivarius): −
Sensitivity to divergicin M35 [4]: −
Sensitivity to divergicin M35 [5]: −
Sensitivity to divergicin M35 (Bifidobacterium breve): −
Sensitivity to divergicin M35 (Propionibacterium sp.): −
Sensitivity to divergicin M35 [6]: −
Sensitivity to divergicin M35 (Pediococcus pentosaceus): −
Sensitivity to divergicin M35 (Lactobacillus casei): −
Sensitivity to divergicin M35 (L. ivanovii; strain ATCC19119): −
Sensitivity to divergicin M35 (L. ivanovii; strain HPB28): +
Increase in specific Activity (fold) (L. innocua HPB13 [7]): 9500 fold
biological activity of divergicin M35 in culture (L. innocua HPB13 [8]; after 10 h of growth): approximately 18000 AU/ml
biological activity of divergicin M35 in culture, maximum (L. innocua HPB13 [8]; after 14 h of growth): 65000 AU/ml
time the antibacterial activity (diameter of the inhibition zone) remained stable (Listeria monocytogenes; in every case (sensitive Listeria strains)): ≥ 36 h
number of strains sensitive to divergicin M35 (Listeria monocytogenes; of the 24 tested strains of L. monocytogenes): 22
Sensitivity to divergicin M35 (Listeria monocytogenes; strain ATCC 19111): +
Sensitivity to divergicin M35 (Listeria monocytogenes; strain ATCC 19112): +
Sensitivity to divergicin M35 (Listeria monocytogenes; strain ATCC 19114): +
Sensitivity to divergicin M35 (Listeria monocytogenes; strain ATCC 19115): +
Sensitivity to divergicin M35 (Listeria monocytogenes; strain ATCC 35152): +
Sensitivity to divergicin M35 (Listeria monocytogenes; strain LSD 15): −
sensitivity to divergicin M35 (in words) (Listeria monocytogenes; strain LSD 15): resistant
Diameter of inhibition zone (mm) (Listeria monocytogenes; strain LSD 332): 18.5 ± 1 mm
Sensitivity to divergicin M35 (Listeria monocytogenes; strain LSD 332): +
Diameter of inhibition zone (mm) (Listeria monocytogenes; strain LSD 336): 16.5 ± 0.5 mm
Sensitivity to divergicin M35 (Listeria monocytogenes; strain LSD 336): +
Diameter of inhibition zone (mm) (Listeria monocytogenes; strain LSD 338): 18.0 ± 0.5 mm
Sensitivity to divergicin M35 (Listeria monocytogenes; strain LSD 338): +
Diameter of inhibition zone (mm) (Listeria monocytogenes; strain LSD 339): 19.0 ± 0.5 mm
Sensitivity to divergicin M35 (Listeria monocytogenes; strain LSD 339): +
Diameter of inhibition zone (mm) (Listeria monocytogenes; strain LSD 340): 17.0 ± 0.5 mm
Sensitivity to divergicin M35 (Listeria monocytogenes; strain LSD 340): +
Diameter of inhibition zone (mm) (Listeria monocytogenes; strain LSD 341): 13.0 ± 0.5 mm
Sensitivity to divergicin M35 (Listeria monocytogenes; strain LSD 341): +
Diameter of inhibition zone (mm) (Listeria monocytogenes; strain LSD 346): 17.5 ± 1 mm
Sensitivity to divergicin M35 (Listeria monocytogenes; strain LSD 346): +
Diameter of inhibition zone (mm) (Listeria monocytogenes; strain LSD 348): 17.5 ± 1 mm
Sensitivity to divergicin M35 (Listeria monocytogenes; strain LSD 348): +
Diameter of inhibition zone (mm) (Listeria monocytogenes; strain LSD 523): 10 ± 1^b mm
Sensitivity to divergicin M35 (Listeria monocytogenes; strain LSD 523): +
Diameter of inhibition zone (mm) (Listeria monocytogenes; strain LSD 524): 22.0 ± 1^b mm
Sensitivity to divergicin M35 (Listeria monocytogenes; strain LSD 524): +
Sensitivity to divergicin M35 (Listeria monocytogenes; strain LSD 525): −
sensitivity to divergicin M35 (in words) (Listeria monocytogenes; strain LSD 525): resistant
Diameter of inhibition zone (mm) (Listeria monocytogenes; strain LSD 526): 21.0 ± 1 mm
Sensitivity to divergicin M35 (Listeria monocytogenes; strain LSD 526): +
Diameter of inhibition zone (mm) (Listeria monocytogenes; strain LSD 529): 14.5 ± 0.5 mm
Sensitivity to divergicin M35 (Listeria monocytogenes; strain LSD 529): +
Diameter of inhibition zone (mm) (Listeria monocytogenes; strain LSD 530): 19.0 ± 1 mm
Sensitivity to divergicin M35 (Listeria monocytogenes; strain LSD 530): +
Diameter of inhibition zone (mm) (Listeria monocytogenes; strain LSD 531): 18.5 ± 1 mm
Sensitivity to divergicin M35 (Listeria monocytogenes; strain LSD 531): +
Diameter of inhibition zone (mm) (Listeria monocytogenes; strain LSD 532): 20.0 ± 0.5^b mm
Sensitivity to divergicin M35 (Listeria monocytogenes; strain LSD 532): +
Diameter of inhibition zone (mm) (Listeria monocytogenes; strain LSD 535): 19.0 ± 0.5 mm
Sensitivity to divergicin M35 (Listeria monocytogenes; strain LSD 535): +
Diameter of inhibition zone (mm) (Listeria monocytogenes; strain LSD 538): 20.0 ± 0.5 mm
Sensitivity to divergicin M35 (Listeria monocytogenes; strain LSD 538): +
Diameter of inhibition zone (mm) (L. innocua): 21 ± 0.5 mm
Sensitivity to divergicin M35 (L. innocua): +
Diameter of inhibition zone (mm) (Carnobacterium divergens): 15.0 ± 1 mm
Sensitivity to divergicin M35 (Carnobacterium divergens): +
Diameter of inhibition zone (mm) (L. welshimeri): 20 ± 0.5 mm
Sensitivity to divergicin M35 (L. welshimeri): +
Sensitivity to divergicin M35 (Escherichia coli; Escherichia coli 22): −
Sensitivity to divergicin M35 (Escherichia coli; Escherichia coli 43): −
effect on Gram-negative strains (in words) (Escherichia coli; Escherichia coli strains tested): not affected
Diameter of inhibition zone (mm) (L. murayi): 17.5 ± 1 mm
Sensitivity to divergicin M35 (L. murayi): +
Diameter of inhibition zone (mm) (L. grayi): 15.0 ± 1 mm
Sensitivity to divergicin M35 (L. grayi): +
Diameter of inhibition zone (mm) (L. seeligeri): 13.5 ± 1 mm
Sensitivity to divergicin M35 (L. seeligeri): +
Diameter of inhibition zone (mm) (Carnobacterium piscicola): 17.5 ± 1 mm
Sensitivity to divergicin M35 (Carnobacterium piscicola): +
